# Where “and” joins values, the source holds several entries; their conditions need not be identical. Equal entries are not always repeated. Structures can show the parent of a compound that is named as a salt. Marks after values point to notes of the source that are not given here.
# Legend:
# [1] = system: B6.Cg-Lep^ob/J (ob/ob) mouse model; test: Oral glucose tolerance test (OGTT) in ob/ob mice, Example 1; type: in vivo; conditions: for Blood glucose levels raw data: individual ob/ob mice, OGTT, metformin 450 mg/kg, hydrochloride; for Mean blood glucose level: ob/ob mice OGTT Day 3, metformin hydrochloride 450 mg/kg QD PO
# Method: Amino Acid Composition A-1 and metformin were tested for their ability to affect glucose tolerance in a genetically obese B6.Cg-Lep^ob/J (ob/ob) mouse model (Maida A, et al., 2010, PMID: 20972533).
# Eight-week-old male ob/ob mice were subjected to treatment of test articles (Amino Acid Composition A-1 and metformin) followed by oral glucose tolerance test (OGTT) on Day 3. Mice were randomized by body weight and unfasted blood glucose on Day −1. Body weight was recorded daily in the morning before AM dosing on Day 1, Day 2, and Day 3. Test articles were dosed by oral gavage at 10 ml/kg. Dosage of a test article was calculated based on daily body weight. Treatment schedule and dose are listed in the following section (Table 34). AM doses were administered at 0700, and PM doses were administered at 1800. Oral glucose tolerance test (OGTT) was performed after 6-hour fasting on Day 3.
# Mice were fasted for 6 hours prior to OGTT test. Food was removed at 0700 hours on Day 3; water was provided during fasting. Blood samples were collected from tail snip or facial puncture at −30 min (relative to OGTT) into K2EDTA tubes for baseline glucose and blood biochemistry (insulin, triglyceride, and cholesterol). Blood glucose was measured by a glucometer (SDI StatStrip Xpress or equivalent). Plasma was collected in K2EDTA and saved at −80° C.
# Mice were bled for baseline glucose and plasma at −30 min. Test articles were then dosed by oral gavage at −30 min. Glucose was administered per os (P.O.) at a dosage of 2.0 g/kg body weight. Blood glucose levels were measured at 0 min immediately prior to glucose injection and then at 15, 30, 60, 120 and 240 minutes thereafter (shown as 0.25, 0.5, 1, 2, and 4 hours in Table 35 below).
# Data are mean±standard deviation (stdev). (p values by Dunnett's multiple comparisons: **p<0.005 compared to vehicle control; ***p<0.001 compared to vehicle control; ****p<0.0005 compared to vehicle control.)
# [2] = system: B6.Cg-Lep^ob/J (ob/ob) mouse model; test: as above; type: in vivo; conditions: timepoint −1 hours
# ob/ob mice; C57/BL6 = conditions: cited from earlier work
smiles,measurement,setting,value
"CN(C)C(=N)N=C(N)N [Metformin, Metformin hydrochloride]",Blood glucose levels raw data,[1]; timepoint 0 hours,274 mg/dL and 234 mg/dL and 220 mg/dL and 129 mg/dL and 140 mg/dL
same,Blood glucose levels raw data,[1]; timepoint 0.25 hours,387 mg/dL and 397 mg/dL and 427 mg/dL and 310 mg/dL and 247 mg/dL
same,Blood glucose levels raw data,[1]; timepoint 0.5 hours,462 mg/dL and 439 mg/dL and 482 mg/dL and 307 mg/dL and 261 mg/dL
same,Blood glucose levels raw data,[1]; timepoint 1 hours,365 mg/dL and 399 mg/dL and 431 mg/dL and 239 mg/dL and 154 mg/dL
same,Blood glucose levels raw data,[1]; timepoint 2 hours,154 mg/dL and 183 mg/dL and 219 mg/dL and 124 mg/dL and 111 mg/dL
same,Blood glucose levels raw data,[1]; timepoint 4 hours,118 mg/dL and 93 mg/dL and 155 mg/dL and 101 mg/dL and 80 mg/dL
same,Mean blood glucose level,[1]; timepoint 0 hours,199.4 mg/dL
same,Mean blood glucose level,[1]; timepoint 0.25 hours,353.6**** mg/dl
same,Mean blood glucose level,[1]; timepoint 0.5 hours,390.2*** mg/dl
same,Mean blood glucose level,[1]; timepoint 1 hours,317.6 mg/dL
same,Mean blood glucose level,[1]; timepoint 2 hours,158.2 mg/dL
same,Mean blood glucose level,[1]; timepoint 4 hours,109.4 mg/dL
same,Blood glucose levels raw data,"[2]; individual ob/ob mice, OGTT, metformin 450 mg/kg, hydrochloride",265 mg/dL and 248 mg/dL and 183 mg/dL and 120 mg/dL and 166 mg/dL
same,Mean blood glucose level,"[2]; ob/ob mice OGTT Day 3, metformin hydrochloride 450 mg/kg QD PO",196.4 mg/dL
same,Glucose tolerance (OGTT),"ob/ob mice; C57/BL6; C57/BL6, single dose",improves glucose tolerance
same,Plasma glucose,"ob/ob mice; C57/BL6; ob/ob mice (Cool B, et al., 2006)",lowers plasma glucose
same,NAFLD,"ob/ob mice; C57/BL6; ob/ob mice (Lin H Z et al., 2000; Cool B, et al., 2006)",reverses NAFLD
